# Laboratory results from patent publication US20050119240A1, “1-methyl-20-epi-vitamin d derivative” (priority 2000, published 2005).
# Molecular target: T1, Bovine thymus 1α,25-dihydroxyvitamin D3 receptor (VDR) (Bos taurus, UniProt Q28037)
# T1 sequence (Q28037 1-426): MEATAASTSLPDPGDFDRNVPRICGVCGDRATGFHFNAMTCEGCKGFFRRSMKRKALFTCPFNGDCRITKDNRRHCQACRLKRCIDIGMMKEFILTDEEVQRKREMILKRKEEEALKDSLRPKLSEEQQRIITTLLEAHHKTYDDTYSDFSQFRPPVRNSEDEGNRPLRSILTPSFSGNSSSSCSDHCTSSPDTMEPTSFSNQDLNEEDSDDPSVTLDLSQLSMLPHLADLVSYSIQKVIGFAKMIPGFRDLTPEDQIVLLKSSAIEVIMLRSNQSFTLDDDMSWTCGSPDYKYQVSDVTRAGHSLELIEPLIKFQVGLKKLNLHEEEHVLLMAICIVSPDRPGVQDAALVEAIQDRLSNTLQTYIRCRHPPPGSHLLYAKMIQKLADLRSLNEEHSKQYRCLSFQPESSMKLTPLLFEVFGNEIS
# Conditions: relative value with that of 1α,25-dihydroxyvitamin D3 taken as 100; [3H]-1α,25-dihydroxyvitamin D3 0.1 nM, incubation overnight at 4° C.
row,VDR binding properties,SMILES
1,1,"C=C1/C(=C\C=C2/CCC[C@]3(C)[C@@H]([C@@H](C)CCCC(C)(C)O)CC[C@@H]23)C[C@H](O)C[C@]1(C)O [Compound 4, (5Z,7E)-(1S,3S,20S)-1Methyl-9,10-seco-5,7,10(19)-cholestatriene-1,3,25-triol]"
2,0.004,"C=C1/C(=C\C=C2/CCC[C@@]3(C)C2CCC3[C@@H](C)CCCC(C)(C)O)C[C@H](O)C[C@@]1(C)O (stereo partly drawn) [Compound 11, (5Z,7E)-(1R,3S,20S)-1-Methyl-9,10-seco-5,7,10(19)-cholestatriene-1,3,25-triol]"
3,0.017,"C=C1C(=CC=C2CCCC3(C)C2CCC3C(C)CCCC(C)(C)O)CC(O)CC1(C)O [Compound 9, (5Z,7E)-(1R,3R,20S)-1-Methyl-9,10-seco-5,7,10(19)-cholestatriene-1,3,25-triol]"
4,1,"C=C1/C(=C\C=C2/CCC[C@@]3(C)C2CCC3[C@@H](C)CCCC(C)(C)O)C[C@@H](O)C[C@]1(C)O (stereo partly drawn) [Compound 6, (5Z,7E)-(1S,3R,20S)-1-Methyl-9,10-seco-5,7,10(19)-cholestatriene-1,3,25-triol]"
